Measurements reported in ChEMBL document CHEMBL1909281, “FDA-approved drug labeling for the study of drug-induced liver injury” (Drug Discov Today, 2011).

Test system: Hepatotoxicity
Test: FDA Liver Toxicity Knowledge Base Benchmark Dataset (LTKB-BD) drugs of most concern for DILI
Settings: not given

SMILES | LTKB_BD DILI severity score
CCN(CC)CCNC(=O)c1c(C)[nH]c(/C=C2\C(=O)Nc3ccc(F)cc32)c1C [SUNITINIB] | 8
C[C@@](Cc1ccc(O)c(O)c1)(NN)C(=O)O.O [CARBIDOPA] | 4
O=C(O)c1cn(C2CC2)c2cc(N3CCNCC3)c(F)cc2c1=O [CIPROFLOXACIN] | 7
O=C1CC[C@@]2(O)[C@H]3Cc4ccc(O)c5c4[C@@]2(CCN3CC2CC2)[C@H]1O5 [NALTREXONE] | 3
CC(C)C(=O)Nc1ccc([N+](=O)[O-])c(C(F)(F)F)c1 [FLUTAMIDE] | 8
Nc1ccn([C@@H]2CS[C@H](CO)O2)c(=O)n1 [LAMIVUDINE] | 8
Nc1nc(NC2CC2)c2ncn([C@H]3C=C[C@@H](CO)C3)c2n1 [ABACAVIR] | 8
C[C@H](Cn1cnc2c(N)ncnc21)OCP(=O)(O)O [TENOFOVIR ANHYDROUS] | 8
CC[C@@H](CO)NCCN[C@@H](CC)CO [ETHAMBUTOL] | 8
CC(C)(C)NC(=O)[C@@H]1CN(Cc2cccnc2)CCN1C[C@@H](O)C[C@@H](Cc1ccccc1)C(=O)N[C@H]1c2ccccc2C[C@H]1O.O | 8
Cc1nnc(C(C)C)n1[C@@H]1C[C@H]2CC[C@@H](C1)N2CC[C@H](NC(=O)C1CCC(F)(F)CC1)c1ccccc1 [MARAVIROC] | 3
CCCCc1oc2ccccc2c1C(=O)c1cc(I)c(OCCN(CC)CC)c(I)c1 [AMIODARONE] | 8
Cc1ccnc2c1NC(=O)c1cccnc1N2C1CC1 [NEVIRAPINE] | 8
CS(=O)(=O)CCNCc1ccc(-c2ccc3ncnc(Nc4ccc(OCc5cccc(F)c5)c(Cl)c4)c3c2)o1 [LAPATINIB] | 8
CO[C@H]1/C=C/O[C@@]2(C)Oc3c(C)c(O)c4c(O)c(c(/C=N/N5CCN(C)CC5)c(O)c4c3C2=O)NC(=O)/C(C)=C\C=C\[C@H](C)[C@H](O)[C@@H](C)[C@@H](O)[C@@H](C)[C@H](OC(C)=O)[C@@H]1C [RIFAMPIN] | 8
Cc1cc(NS(=O)(=O)c2ccc(N)cc2)no1 [SULFAMETHOXAZOLE] | 7
NC(=O)OCC(COC(N)=O)c1ccccc1 [FELBAMATE] | 7
Nc1ccc(C(=O)O)c(O)c1 [AMINOSALICYLIC ACID] | 5
C[C@]12C/C(=C/O)C(=O)C[C@@H]1CC[C@@H]1[C@@H]2CC[C@@]2(C)[C@H]1CC[C@]2(C)O [OXYMETHOLONE] | 8
O=c1[nH]cnc2c1ncn2[C@H]1CC[C@@H](CO)O1 [DIDANOSINE] | 8
CC(=O)O[C@@]12CO[C@@H]1C[C@H](O)[C@@]1(C)C(=O)[C@H](O)C3=C(C)[C@@H](OC(=O)[C@H](O)[C@@H](NC(=O)OC(C)(C)C)c4ccccc4)C[C@@](O)([C@@H](OC(=O)c4ccccc4)[C@H]21)C3(C)C.O.O.O [DOCETAXEL] | 8
CC(C)c1nc(CN(C)C(=O)N[C@H](C(=O)N[C@@H](Cc2ccccc2)C[C@H](O)[C@H](Cc2ccccc2)NC(=O)OCc2cncs2)C(C)C)cs1 [RITONAVIR] | 5
NNC(=O)c1ccncc1 [ISONIAZID] | 8
CC[C@H]1OC(=O)[C@H](C)[C@@H](O[C@H]2C[C@@](C)(OC)[C@@H](O)[C@H](C)O2)[C@H](C)[C@@H](O[C@@H]2O[C@H](C)C[C@H](N(C)C)[C@H]2O)[C@](C)(O)C[C@@H](C)C(=O)[C@H](C)[C@@H](O)[C@]1(C)O [ERYTHROMYCIN] | 5

Same assay, conditions: Liver

SMILES | LTKB_BD DILI severity score
OC(Cn1cncn1)(Cn1cncn1)c1ccc(F)cc1F [FLUCONAZOLE] | 8
CCCc1cc(=O)[nH]c(=S)[nH]1 [PROPYLTHIOURACIL] | 8
CC1=NN(c2ccc(C)c(C)c2)C(=O)/C1=N\Nc1cccc(-c2cccc(C(=O)O)c2)c1O [ELTROMBOPAG] | 6
Nc1c2c(nc3ccccc13)CCCC2 [TACRINE] | 7
Sc1ncnc2nc[nH]c12 [MERCAPTOPURINE ANHYDROUS] | 8
O=C1CN(/N=C/c2ccc([N+](=O)[O-])o2)C(=O)N1 [NITROFURANTOIN] | 8
